± gives the uncertainty stated by the source.
Experiment: xn = mol fraction of the nth substance listed

## CC(=O)C(=O)O + CC[N+](CC)(CC)CC.[Cl-]
298.15 K, 101.3 kPa, x2 = 0.3333
  viscosity: 89.1 ± 6.8 mPa·s
308.15 K, 101.3 kPa, x2 = 0.3333
  viscosity: 57.5 ± 1.3 mPa·s
318.15 K, 101.3 kPa, x2 = 0.3333
  viscosity: 37.5 ± 1.2 mPa·s
328.15 K, 101.3 kPa, x2 = 0.3333
  viscosity: 24.05 ± 0.8 mPa·s
338.15 K, 101.3 kPa, x2 = 0.3333
  viscosity: 16.05 ± 0.54 mPa·s

## O=C(O)CO + CC[N+](CC)(CC)CC.[Cl-]
303.15 K, 101 kPa, x1 = 0.6667
  viscosity: 268 ± 12 mPa·s
323.15 K, 101 kPa, x1 = 0.6667
  viscosity: 87 ± 10 mPa·s
353.15 K, 101 kPa, x1 = 0.6667
  viscosity: 27 ± 10 mPa·s

## CC[N+](CC)(CC)CC.O=[N+]([O-])[O-] + CC[NH3+].O=[N+]([O-])[O-]
293.15 K, 101 kPa, frequency 0.00293 MHz, x1 = 0.15
  electrical conductivity: 1.01 S/m
293.15 K, 101 kPa, x1 = 0.15
  viscosity: 74.1 mPa·s
303.15 K, 101 kPa, frequency 0.00293 MHz, x1 = 0.0501
  electrical conductivity: 2.13 S/m
303.15 K, 101 kPa, frequency 0.00293 MHz, x1 = 0.15
  electrical conductivity: 1.42 S/m
303.15 K, 101 kPa, frequency 0.00293 MHz, x1 = 0.35
  electrical conductivity: 0.565 S/m
303.15 K, 101 kPa, x1 = 0.0501
  viscosity: 35.5 mPa·s
303.15 K, 101 kPa, x1 = 0.15
  viscosity: 50 mPa·s
303.15 K, 101 kPa, x1 = 0.35
  viscosity: 131 mPa·s
308.15 K, 101 kPa, frequency 0.00293 MHz, x1 = 0.2001
  electrical conductivity: 1.34 S/m
308.15 K, 101 kPa, x1 = 0.2001
  viscosity: 50.4 mPa·s
313.15 K, 101 kPa, frequency 0.00293 MHz, x1 = 0.1
  electrical conductivity: 2.33 S/m
313.15 K, 101 kPa, x1 = 0.1
  viscosity: 30.3 mPa·s
318.15 K, 101 kPa, frequency 0.00293 MHz, x1 = 0.2995
  electrical conductivity: 1.04 S/m
318.15 K, 101 kPa, x1 = 0.2995
  viscosity: 50.9 mPa·s
323.15 K, 101 kPa, frequency 0.00293 MHz, x1 = 0.15
  electrical conductivity: 2.46 S/m
323.15 K, 101 kPa, x1 = 0.15
  viscosity: 26.2 mPa·s
328.15 K, 101 kPa, x1 = 0.2001
  viscosity: 26.6 mPa·s
328.15 K, 101 kPa, x1 = 0.2567
  viscosity: 32.4 mPa·s
328.15 K, 101 kPa, x1 = 0.35
  viscosity: 48.3 mPa·s
333.15 K, 101 kPa, x1 = 0.15
  viscosity: 20.1 mPa·s
343.15 K, 101 kPa, x1 = 0.15
  viscosity: 15.7 mPa·s
348.15 K, 101 kPa, x1 = 0.2001
  viscosity: 16 mPa·s
348.15 K, 101 kPa, x1 = 0.35
  viscosity: 26.3 mPa·s
353.15 K, 101 kPa, x1 = 0.1
  viscosity: 11 mPa·s
353.15 K, 101 kPa, x1 = 0.35
  viscosity: 23.4 mPa·s

## C[N+]1(CCOCCOCCOCC[N+]2(C)CCCC2)CCCC1.O=S(=O)([N-]S(=O)(=O)C(F)(F)F)C(F)(F)F.O=S(=O)([N-]S(=O)(=O)C(F)(F)F)C(F)(F)F + CC[n+]1ccn(C)c1.N#C[N-]C#N + O=S(=O)([N-]S(=O)(=O)C(F)(F)F)C(F)(F)F.[Li+]
298 K, 100 kPa, x1 = 0.1489, x2 = 0.7484
  electrical conductivity: 0.698 ± 0.028 S/m
303 K, 100 kPa, x1 = 0.1489, x2 = 0.7484
  electrical conductivity: 0.827 ± 0.033 S/m
313 K, 100 kPa, x1 = 0.1489, x2 = 0.7484
  electrical conductivity: 1.1 ± 0.044 S/m
323 K, 100 kPa, x1 = 0.1489, x2 = 0.7484
  electrical conductivity: 1.43 ± 0.057 S/m
333 K, 100 kPa, x1 = 0.1489, x2 = 0.7484
  electrical conductivity: 1.81 ± 0.072 S/m
343 K, 100 kPa, x1 = 0.1489, x2 = 0.7484
  electrical conductivity: 2.21 ± 0.089 S/m

## F[P-](F)(F)(F)(F)F.[Li+] + CC[n+]1ccn(C)c1.O=S(=O)([N-]S(=O)(=O)C(F)(F)F)C(F)(F)F
288.15 K, 101 kPa, x2 = 0.729
  electrical conductivity: 0.124 ± 0.013 S/m
288.15 K, 101 kPa, x2 = 0.8022
  electrical conductivity: 0.208 ± 0.021 S/m
288.15 K, 101 kPa, x2 = 0.8765
  electrical conductivity: 0.431 ± 0.043 S/m
288.15 K, 101 kPa, x2 = 0.9623
  electrical conductivity: 0.52 ± 0.052 S/m
298.15 K, 101 kPa, x2 = 0.7088
  electrical conductivity: 0.195 ± 0.02 S/m
298.15 K, 101 kPa, x2 = 0.729
  electrical conductivity: 0.222 ± 0.022 S/m
298.15 K, 101 kPa, x2 = 0.8022
  electrical conductivity: 0.355 ± 0.036 S/m
298.15 K, 101 kPa, x2 = 0.8765
  electrical conductivity: 0.651 ± 0.065 S/m
298.15 K, 101 kPa, x2 = 0.9623
  electrical conductivity: 0.775 ± 0.078 S/m
333.15 K, 101 kPa, x2 = 0.7088
  electrical conductivity: 0.816 ± 0.082 S/m
333.15 K, 101 kPa, x2 = 0.729
  electrical conductivity: 0.865 ± 0.087 S/m
333.15 K, 101 kPa, x2 = 0.8022
  electrical conductivity: 1.17 ± 0.12 S/m
333.15 K, 101 kPa, x2 = 0.8765
  electrical conductivity: 1.72 ± 0.17 S/m
333.15 K, 101 kPa, x2 = 0.9623
  electrical conductivity: 1.95 ± 0.2 S/m

## F[P-](F)(F)(F)(F)F.[Li+] + CC[n+]1ccn(C)c1.O=S(=O)([O-])C(F)(F)F
288.15 K, 101 kPa, x1 = 0.007746
  electrical conductivity: 0.614 ± 0.062 S/m
288.15 K, 101 kPa, x1 = 0.01537
  electrical conductivity: 0.559 ± 0.056 S/m
288.15 K, 101 kPa, x2 = 0.9746
  electrical conductivity: 0.532 ± 0.053 S/m
298.15 K, 101 kPa, x1 = 0.007746
  electrical conductivity: 0.898 ± 0.09 S/m
298.15 K, 101 kPa, x1 = 0.01537
  electrical conductivity: 0.816 ± 0.082 S/m
298.15 K, 101 kPa, x2 = 0.9673
  electrical conductivity: 0.786 ± 0.079 S/m
298.15 K, 101 kPa, x2 = 0.9746
  electrical conductivity: 0.785 ± 0.079 S/m
333.15 K, 101 kPa, x1 = 0.007746
  electrical conductivity: 2.3 ± 0.23 S/m
333.15 K, 101 kPa, x1 = 0.01537
  electrical conductivity: 2.08 ± 0.21 S/m
333.15 K, 101 kPa, x2 = 0.9673
  electrical conductivity: 2.08 ± 0.21 S/m
333.15 K, 101 kPa, x2 = 0.9746
  electrical conductivity: 2.02 ± 0.2 S/m

## O=C(O)CC(=O)O + CC[n+]1ccn(C)c1.[Cl-]
303.15 K, 101.33 kPa, x2 = 0.667
  viscosity: 138.9 ± 3.8 mPa·s

From the CheMixHub ionic liquid set
